Reference: PMC7369637, “Inhibition of Resistance-Refractory P. falciparum Kinase PKG Delivers Prophylactic, Blood Stage, and Transmission-Blocking Antiplasmodial Activity” (Cell Chemical Biology, 2020)
pIC50: −log10 of the molar value.

Assays:
[1] = system: mature (stage V) NF54 gametocytes; experiment: Gametocyte susceptibility, saponin lysis-based MitoTracker high-content imaging assay; format: cell-based; details: Plasmodium falciparum, saponin lysis-based sexual stage assay, 72 h
Experimental: This was determined using two separate assays. The first involved MitoTracker staining and high-content imaging. Mature (stage V) gametocytes were generated from NF54 ABS cultures as described elsewhere ([Plouffe et al., 2016]). Briefly, asexual parasites were cultured at 5% hematocrit in O^+ human erythrocytes in serum-containing complete media (RPMI 1640 (Life Technologies), 0.05 mg/ml gentamicin (Life Technologies), 0.014 mg/ml hypoxanthine (Sigma), 38.4 mM HEPES (Sigma), 0.2% (w/v) sodium bicarbonate (Sigma), D-glucose 0.2% (w/v) (Sigma), 3.4 mM sodium hydroxide (Sigma), 4.3% (v/v) heat-inactivated human serum (O^+, Interstate Blood bank), and 0.2% (w/v) AlbuMAX® II (Life Technologies)). […] The second assay assessed gametocyte susceptibility using a luciferase-based assay with 3D7elo1-pfs16-CBG99 transgenic parasites ([Cevenini et al., 2014]). […] Cell viability was then evaluated by adding a non-lysing formulation of 0.5 mM D-Luciferin substrate and measuring luciferase activity for 0.5 s on a Varioskan™ Flash Multimode Reader (Thermo Scientific). The percent of viability was calculated as a function of drug concentration and IC50 values were derived by non-linear regression analysis and curve fitting (using GraphPad Prism 6.0).

[2] = target: T1, human protein extracts (Mixed: HEK-293/ K-562/ Placenta/ Hep G2) (Homo sapiens, UniProt P08240); experiment: Chemoproteomic profiling, MS/MS data for all quantified proteins (Table S1 E3); format: binding
T1 construct: endogenous in cells; host or cells: mixture of HEK-293, K-562, Hep G2 and placenta
Experimental: (§1) Human extracts were prepared as described ([Bantscheff et al., 2011]). Briefly, frozen cell pellets were homogenized in lysis buffer (50 mM Tris-HCl, 0.8% Igepal-CA630, 5% glycerol, 150 mM NaCl, 1.5 mM MgCl2, 25 mM sodium fluoride, 1 mM sodium vanadate, 1 mM DTT, pH 7.5). One cOmplete EDTA-free protease inhibitor tablet (Roche) was added per 25 ml. Samples were dispersed using a Dounce homogenizer, rotated for 30 min at 4°C, and centrifuged at 20,000g for 10 min at 4°C. Supernatants were then recentrifuged at 145,000g for 1 h at 4°C. Protein concentrations were determined using a Bradford assay (BioRad). Aliquots were snap frozen in liquid nitrogen and stored at −80°C.
(§2) Kinobeads were prepared by immobilizing Bis-(III) indolyl-maleimide, purvalanol B, staurosporine and CZC8004, and the analogs of PD173955, sunitinib and vandetanib on NHS-activated Sepharose 4 beads (Amersham) ([Bantscheff et al., 2007]). […] The chemoproteomic affinity-capturing experiments were performed as previously described ([Bantscheff et al., 2011]). Briefly, beads were washed and equilibrated in lysis buffer (50 mM Tris-HCl, pH 7.4, 0.4 % Igepal-CA630, 1.5 mM MgCl2, 5 % Glycerol, 150 mM NaCl, 25 mM NaF, 1 mM Na3VO4, 1 mM DTT, and one cOmplete EDTA-free protease inhibitor tablet (Roche) per 25 mL). […] 10 samples were measured in parallel (TMT 10-plex ([Werner et al., 2014])) to generate values for the affinity of the beads to the bound proteins (“depletion” values, 4 samples) and to generate IC50 values (6 samples) in a single experiment. Apparent dissociation constants were determined after accounting for protein depletion by the beads ([Bantscheff et al., 2011]). […]
(§3) Proteins were digested according to a modified single pot solid-phase sample preparation (SP3) protocol ([Hughes et al., 2014]). Peptides were labeled with isobaric mass tags (Thermo Fisher Scientific, Waltham, MA) using 10-plex TMT reagents, enabling relative quantification of 10 conditions in a single experiment ([Werner et al., 2014]). […]

[3] = target: T2, human protein extracts (Mixed: HEK-293/ K-562/ Placenta/ Hep G2) (Homo sapiens, UniProt Q7L576); experiment: as above; format: binding
T2 construct: endogenous in cells; host or cells: mixture of HEK-293, K-562, Hep G2 and placenta
Experimental: as §1, §2, §3

T2 sequence (Q7L576 whole entry): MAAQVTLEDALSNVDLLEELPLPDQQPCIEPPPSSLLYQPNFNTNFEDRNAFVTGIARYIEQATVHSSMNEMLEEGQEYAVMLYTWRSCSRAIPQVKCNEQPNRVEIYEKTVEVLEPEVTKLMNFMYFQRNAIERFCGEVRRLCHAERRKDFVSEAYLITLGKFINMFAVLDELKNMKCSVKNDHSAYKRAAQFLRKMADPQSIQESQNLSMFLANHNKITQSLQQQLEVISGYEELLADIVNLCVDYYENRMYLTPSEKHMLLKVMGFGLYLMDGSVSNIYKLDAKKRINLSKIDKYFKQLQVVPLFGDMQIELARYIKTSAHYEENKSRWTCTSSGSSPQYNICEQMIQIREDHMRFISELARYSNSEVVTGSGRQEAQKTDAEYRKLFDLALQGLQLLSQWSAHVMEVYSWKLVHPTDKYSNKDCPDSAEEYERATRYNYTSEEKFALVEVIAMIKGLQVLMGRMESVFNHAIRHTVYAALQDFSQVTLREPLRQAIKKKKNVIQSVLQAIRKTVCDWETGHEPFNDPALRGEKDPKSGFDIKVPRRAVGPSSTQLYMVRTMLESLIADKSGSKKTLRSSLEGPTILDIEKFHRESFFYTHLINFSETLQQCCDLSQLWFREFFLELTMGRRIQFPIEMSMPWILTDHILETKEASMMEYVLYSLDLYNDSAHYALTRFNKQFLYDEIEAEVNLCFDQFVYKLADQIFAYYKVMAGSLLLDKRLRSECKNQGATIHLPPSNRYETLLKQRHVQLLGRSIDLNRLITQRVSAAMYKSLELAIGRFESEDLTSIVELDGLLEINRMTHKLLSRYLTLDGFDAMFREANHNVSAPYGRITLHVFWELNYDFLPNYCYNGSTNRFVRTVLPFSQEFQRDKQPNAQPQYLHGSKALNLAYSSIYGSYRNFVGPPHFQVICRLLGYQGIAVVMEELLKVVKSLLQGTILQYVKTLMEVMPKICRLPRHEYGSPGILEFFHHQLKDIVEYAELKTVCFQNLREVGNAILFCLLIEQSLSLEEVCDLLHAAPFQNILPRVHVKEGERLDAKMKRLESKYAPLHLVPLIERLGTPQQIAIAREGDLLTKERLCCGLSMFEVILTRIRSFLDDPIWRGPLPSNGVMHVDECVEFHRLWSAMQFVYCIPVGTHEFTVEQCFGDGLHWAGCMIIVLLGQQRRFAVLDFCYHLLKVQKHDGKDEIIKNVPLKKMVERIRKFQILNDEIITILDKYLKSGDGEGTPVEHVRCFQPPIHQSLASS
T1 sequence (P08240 whole entry): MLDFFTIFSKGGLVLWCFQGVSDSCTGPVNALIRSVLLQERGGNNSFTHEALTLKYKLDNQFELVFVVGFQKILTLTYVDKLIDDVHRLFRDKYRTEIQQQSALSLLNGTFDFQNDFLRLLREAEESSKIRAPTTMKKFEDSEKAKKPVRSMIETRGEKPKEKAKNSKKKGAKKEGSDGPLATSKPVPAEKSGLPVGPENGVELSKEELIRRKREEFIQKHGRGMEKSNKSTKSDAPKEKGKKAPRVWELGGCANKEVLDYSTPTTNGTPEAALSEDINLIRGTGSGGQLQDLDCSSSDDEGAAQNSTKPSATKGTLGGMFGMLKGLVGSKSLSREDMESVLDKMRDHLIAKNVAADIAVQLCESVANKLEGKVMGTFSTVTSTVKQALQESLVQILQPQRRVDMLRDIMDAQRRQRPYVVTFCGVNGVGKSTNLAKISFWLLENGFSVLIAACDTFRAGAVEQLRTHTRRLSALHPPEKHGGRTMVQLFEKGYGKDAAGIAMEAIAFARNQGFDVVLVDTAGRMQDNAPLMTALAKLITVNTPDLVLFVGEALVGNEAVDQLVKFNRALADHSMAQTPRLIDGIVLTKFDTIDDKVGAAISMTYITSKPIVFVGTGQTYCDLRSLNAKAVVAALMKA

Compound `CC(C)(CN)c1nc(-c2ccc(Cl)c(O)c2)c(-c2ccncc2)[nH]1` [MMV030084] has a pIC50 [1] of under 4.40, a pIC50 [2] of at most 4.52 and a pIC50 [3] of at most 4.52.
